Laboratory results from US20240294509A1, “PYRIDAZINONE COMPOUND AS PARP7 INHIBITOR” (Euregen Biopharma Co., Ltd., priority 2021, published 2024).

Experiments:
[1] = Pharmacokinetic properties in SD rats after single intravenous injection and oral administration; assay type: in vivo; conditions: SD male rats; for F: oral bioavailability; for AUC(0-inf) / Cmax / clearance / half-life: rat, plasma
From the text: 1. Test purpose: to determine the pharmacokinetic characteristics of some of the example compound of the present invention in SD rats after single intravenous injection(IV) and oral administration(PO) by LC-MS/MS method.
2. Test material: the test drug is self-made from the example compounds of the present invention; Positive control compound RBN2397 purchased from Shanghai BioChemPartner Biotechnology Co., Ltd. SD male rats were obtained from the Laboratory Animal Management Department of Shanghai Family Planning Research Institute. Animal production license number (SCXK (Shanghai) 2018-0006).
Preparation of 0.5% methyl cellulose: 5 g of methyl cellulose were weighed and dissolved in 1000 mL of purified water.
Preparation of oral formulation: A required amount of test compound was weighed and dissolved in 0.5% methyl cellulose solution to obtain a suspension or solution of 0.5 mg/mL or 1.0 mg/mL.
Preparation of intravenous injection formulation: A required amount of test compound was weighed, and dissolved in 0.5 mL of dimethyl sulfoxide to prepare a solution of 4 mg/mL. 0.25 mL of the above solution was added into 0.5 mL of polyethylene glycol 15 hydroxystearate (solutol) and 4.25 mL of physiological saline to obtain a solution of 0.2 mg/mL.
Administration: SD male rats were orally administered (PO) after fasting overnight, and fed 4 hours after administration.
Sample Collection: blood was collected through jugular vein or other suitable vein, and 0.2 mL of blood was collected at each time point. Samples were placed into tubes containing ethylenediamine tetraacetic acid dipotassium salt and kept on ice before centrifugation. Within 1 hour after blood collection, the blood samples were centrifuged at 2-8° C. and 6800 g for 6 minutes and stored at −80° C. The time point for blood collection was 0.083, 0.25, 0.5, 1, 2, 4, 8 and 24 hours after intravenous administration, and 0.25, 0.5, 1, 2, 4, 6, 8 and 24 hours after oral administration.
The intravenous dosage was 1 mg/kg, and the pharmacokinetic parameters for oral administration were standardized to a 1 mg/kg dose.

NCI-H1373 cells = test: Inhibitory effect on the proliferation of NCI-H1373 cells (CellTiter-Glo); assay type: cell-based; conditions: Homo sapiens, 144 h, 6 days treatment
From the text: 1. Experimental Principle: NCI-H1373 cells are a type of lung adenocarcinoma cells that overexpress PARP7.
2. Experimental Materials: NCI-H1373 cells were obtained from Nanjing Cobioer Biosciences Co., Ltd. CellTiter-Glo® (cell viability chemiluminescent assay reagent) was purchased from Promega (Catalog No. G7571). RPMI-1640 medium was obtained from ATCC (Catalog No. 30-2001). RPMI-1640 medium, penicillin/streptomycin antibiotics were purchased from WISENT. Fetal bovine serum was obtained from Biosera. The Nivo multimode reader was procured from PerkinElmer.
3. Experimental Method: NCI-H1373 cells were seeded in a white 96-well plate with 80 μL of cell suspension per well, containing 3000 NCI-H1373 cells. The cell plate was incubated overnight in a carbon dioxide (CO2) incubator.
The test compounds were serially diluted 5-fold to the 9th concentration, ranging from 2 mmol/L to 5.12 nmol/L, for a duplicate assay. 78 μL of culture medium was added to the intermediate plate, and then, according to the corresponding positions, 2 μL of each gradient-diluted compound was transferred to the intermediate plate. After thorough mixing, 20 μL of the compound solution was transferred to the cell plate. The compound concentration range in the cell plate ranged from 10 μmol/L to 0.0256 nmol/L. The cell plate was incubated in a CO2 incubator for 6 days.
Another cell plate was prepared, and the signal values were read on the day of dosing to obtain the maximum value referred to as Max in the following equation for data analysis. 25 μL of cell viability chemiluminescent assay reagent was added to each well of this cell plate, and it was incubated at room temperature for 10 minutes to stabilize the luminescent signal. Readings were taken using a multimode reader.
After 6 days of treatment, 25 μL of cell viability chemiluminescent assay reagent was added to each well of the cell plate, and it was incubated at room temperature for 10 minutes to stabilize the luminescent signal. Readings were taken using a multimode reader.
The IC50 value was determined by four-parameter curve fitting (obtained by using the “log(inhibitor) vs. response—Variable slope” model in GraphPad Prism).

PARP1 = PARP1 (Homo sapiens (Human), UniProt P09874)
Protocol: (§5) Experimental Principle: The inhibitory effect of the test substance on the enzymatic activity of PARP1/7 is assessed by using an Enzyme-Linked Immunosorbent Assay (ELISA).
(§6) (1) Pre-coating: Add 100 μL of a PBS buffer (10 mM NaH2PO4, 10 mM Na2HPO4, 150 mM NaCl, pH 7.4) containing 20 g/mL of histone to each well of a 96-well plate, and incubate at 4° C. overnight.
(§7) (3) Add 5 μL of the test substance or solvent to each well.
(§8) (4) Add 20 μL of(PARP1 or PARP7 (50 ng/well), and incubate at 30° C. for 1 hour.
(§9) (5) Add 50 μL of streptavidin-HRP to the reaction mixture, and incubate at 30° C. for 30 minutes.
(§10) (6) Finally, add 100 μL of a citrate buffer containing H2O2 and luminol (0.1 M, pH 5.4), and measure the luminescent signal using a microplate reader (Molecular Devices SpectraMax M5).
(§11) (7) Calculate the inhibition rate of PARP1 or PARP7 enzyme activity as [(control group−treatment group)/control group]×10000. Fit the dose-response data with standard dilutions using Prism GraphPad software and calculate the concentration required to achieve 5000 inhibition of PARP1 or PARP7 enzyme activity (IC50).

PARP7 = PARP7 (Homo sapiens (Human), UniProt Q7Z3E1)
Protocol: as §5, §6, §7, §8, §9, §10, §11

[2] = Metabolic stability in rat liver microsomes; assay type: in vitro ADME; conditions: pH 7.4, 1.00 μM compound, 0.5 mg/mL protein, read-out: intrinsic clearance, Clint
Protocol: (§1) 1. Experiment purpose: This study aims to determine the metabolic stability of selected compounds from the embodiments of the invention in liver microsomes of humans, dogs, monkeys, rats, and mice using the LC-MS/MS method.
(§2) Test compounds: The test drug is self-made from the example compounds of the present invention; Positive control compound RBN2397 purchased from Shanghai BioChemPartner Biotechnology Co., Ltd.
(§3) Liver microsomes obtained from Xenotech.
(§4) The incubation was carried out at 37° C. in a CO2 incubator. The reactions were terminated by adding 150 μL of cold acetonitrile at different time points (0, 5, 15, 30, and 45 minutes). The 96-well plate was shaken at 600 rpm for 10 minutes, followed by centrifugation at 6000 rpm for 15 minutes. The supernatant (80 μL) was mixed with 140 μL of pure water, and the remaining amount of the compound was determined using LC-MS/MS. The intrinsic clearance (Clint) was calculated using the formula Clint=k/liver microsomes protein concentration, where “k” is the linear regression slope of log compound remaining percentage against incubation time.

[3] = Metabolic stability in dog liver microsomes; assay type: in vitro ADME; conditions: pH 7.4, 1.00 μM compound, 0.5 mg/mL protein, read-out: intrinsic clearance, Clint
Protocol: as §1, §2, §3, §4

[4] = Metabolic stability in human liver microsomes; assay type: in vitro ADME; conditions: pH 7.4, 1.00 μM compound, 0.5 mg/mL protein, read-out: intrinsic clearance, Clint
Protocol: as §1, §2, §3, §4

[5] = Oral gavage, standardized to a 1 mg/kg dose

Chain of PARP1 (P09874 whole entry): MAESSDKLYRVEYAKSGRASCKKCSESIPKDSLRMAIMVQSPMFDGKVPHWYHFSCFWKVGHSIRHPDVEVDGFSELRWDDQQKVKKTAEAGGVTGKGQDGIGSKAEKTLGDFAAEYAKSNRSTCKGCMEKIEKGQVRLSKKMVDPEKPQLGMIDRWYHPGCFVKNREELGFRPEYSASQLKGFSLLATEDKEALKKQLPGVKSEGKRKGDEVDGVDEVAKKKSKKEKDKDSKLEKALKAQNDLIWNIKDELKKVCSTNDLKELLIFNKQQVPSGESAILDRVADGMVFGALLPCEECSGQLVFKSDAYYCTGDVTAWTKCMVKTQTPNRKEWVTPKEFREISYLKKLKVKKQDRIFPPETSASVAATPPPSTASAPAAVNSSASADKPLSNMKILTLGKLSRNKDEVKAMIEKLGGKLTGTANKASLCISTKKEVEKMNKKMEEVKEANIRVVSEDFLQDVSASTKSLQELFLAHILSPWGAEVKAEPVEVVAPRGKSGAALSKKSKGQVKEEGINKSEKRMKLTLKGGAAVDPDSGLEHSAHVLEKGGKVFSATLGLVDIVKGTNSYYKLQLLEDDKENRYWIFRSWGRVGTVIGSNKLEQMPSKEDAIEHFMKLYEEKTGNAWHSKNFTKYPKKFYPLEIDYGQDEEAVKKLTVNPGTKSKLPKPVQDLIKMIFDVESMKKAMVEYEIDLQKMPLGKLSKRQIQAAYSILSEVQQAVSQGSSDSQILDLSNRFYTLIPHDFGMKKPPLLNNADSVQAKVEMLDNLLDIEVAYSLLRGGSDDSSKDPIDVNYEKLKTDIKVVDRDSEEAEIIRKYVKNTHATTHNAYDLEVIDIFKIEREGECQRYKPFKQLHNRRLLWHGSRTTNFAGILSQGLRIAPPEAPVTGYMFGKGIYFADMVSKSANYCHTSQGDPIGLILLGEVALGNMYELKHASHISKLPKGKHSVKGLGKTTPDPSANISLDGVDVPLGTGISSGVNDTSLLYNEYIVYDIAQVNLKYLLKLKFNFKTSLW
Chain of PARP7 (Q7Z3E1 whole entry): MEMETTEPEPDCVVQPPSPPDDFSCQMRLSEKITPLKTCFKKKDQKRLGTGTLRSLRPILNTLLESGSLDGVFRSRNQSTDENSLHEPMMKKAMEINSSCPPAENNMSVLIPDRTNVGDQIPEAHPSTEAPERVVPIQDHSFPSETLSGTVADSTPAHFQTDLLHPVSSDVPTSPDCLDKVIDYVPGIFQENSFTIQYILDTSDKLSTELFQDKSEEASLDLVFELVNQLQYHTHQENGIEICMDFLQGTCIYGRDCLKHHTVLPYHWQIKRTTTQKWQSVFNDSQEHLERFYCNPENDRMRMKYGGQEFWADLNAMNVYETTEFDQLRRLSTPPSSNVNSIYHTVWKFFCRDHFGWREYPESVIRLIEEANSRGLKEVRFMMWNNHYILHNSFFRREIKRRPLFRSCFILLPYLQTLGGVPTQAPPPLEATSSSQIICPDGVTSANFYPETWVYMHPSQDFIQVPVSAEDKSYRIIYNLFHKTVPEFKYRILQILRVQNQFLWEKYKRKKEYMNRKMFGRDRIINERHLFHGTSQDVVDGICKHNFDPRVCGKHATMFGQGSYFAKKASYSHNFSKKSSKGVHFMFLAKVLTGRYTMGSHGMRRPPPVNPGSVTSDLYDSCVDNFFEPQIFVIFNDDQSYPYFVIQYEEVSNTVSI

O=C(COC[C@@H]1CCCN1c1cc(C(F)(F)F)c(=O)[nH]n1)N1CCN(c2ncc(C(F)(F)F)cn2)CC1 [Compound 1]
F ([1]; Oral gavage): 21.97% | AUC(0-inf) ([1]; Intravenous injection, 1 mg/kg): 360 ng·h/mL | Cmax ([1]; Intravenous injection, 1 mg/kg): 720 ng/mL | clearance ([1]; Intravenous injection, 1 mg/kg): 46.9 mL/min/kg | half-life ([1]; Intravenous injection, 1 mg/kg): 34.8 min | AUC(0-inf) [1, 5]: 89.2 ng·h/mL | Cmax [1, 5]: 53.5 ng/mL | IC50 (NCI-H1373 cells): 38 nM

O=C(CC[C@H]1CCCN1c1cc(C(F)(F)F)c(=O)[nH]n1)N1CCN(c2ncc(C(F)(F)F)cn2)CC1 [Compound 18]
IC50 (PARP1): 2.5 nM | IC50 (PARP7): 2.2 nM

O=C(CC[C@@H]1C[C@H](Oc2ccccc2)CN1c1cc(C(F)(F)F)c(=O)[nH]n1)N1CCN(c2ncc(C(F)(F)F)cn2)CC1 [Compound 19]
F ([1]; Oral gavage): 14.34% | AUC(0-inf) ([1]; Intravenous injection, 1 mg/kg): 397 ng·h/mL | Cmax ([1]; Intravenous injection, 1 mg/kg): 477 ng/mL | clearance ([1]; Intravenous injection, 1 mg/kg): 42.2 mL/min/kg | half-life ([1]; Intravenous injection, 1 mg/kg): 40.8 min | AUC(0-inf) [1, 5]: 60.7 ng·h/mL | Cmax [1, 5]: 15.1 ng/mL

O=C(CC[C@@H]1CCCCN1c1cc(C(F)(F)F)c(=O)[nH]n1)N1CCN(c2ncc(C(F)(F)F)cn2)CC1 [Compound 22]
IC50 (PARP1): 31.6 nM | IC50 (PARP7): 4.6 nM

O=C(CC[C@@H]1CC(F)(F)CN1c1cc(C(F)(F)F)c(=O)[nH]n1)N1CCN(c2ncc(C(F)(F)F)cn2)CC1 [Compound 23]
IC50 (PARP1): 9.7 nM | IC50 (PARP7): 3.2 nM

O=C(CC[C@@H]1C[C@@H]2CCC[C@@H]2N1c1cc(C(F)(F)F)c(=O)[nH]n1)N1CCN(c2ncc(C(F)(F)F)cn2)CC1 [Compound 24]
IC50 (PARP1): 4.1 nM | IC50 (PARP7): 2.1 nM

C[C@@H]1C[C@@H](CCC(=O)N2CCN(c3ncc(C(F)(F)F)cn3)CC2)N(c2cc(C(F)(F)F)c(=O)[nH]n2)C1 [Compound 29]
IC50 (PARP1): 18.3 nM | IC50 (PARP7): 25.6 nM

C[C@H]1CC(CCC(=O)N2CCN(c3ncc(C(F)(F)F)cn3)CC2)N(c2cc(C(F)(F)F)c(=O)[nH]n2)C1 (stereo partly shown) [Compound 30]
IC50 (PARP1): 7.6 nM | IC50 (PARP7): 5.1 nM

O=C(CC[C@@H]1C[C@@H](O)CN1c1cc(C(F)(F)F)c(=O)[nH]n1)N1CCN(c2ncc(C(F)(F)F)cn2)CC1 [Compound 31]
IC50 (PARP1): 25.9 nM | IC50 (PARP7): 4.4 nM

CO[C@H]1C[C@@H](CCC(=O)N2CCN(c3ncc(C(F)(F)F)cn3)CC2)N(c2cc(C(F)(F)F)c(=O)[nH]n2)C1 [Compound 34]
IC50 (PARP1): 13.6 nM | IC50 (PARP7): 3.3 nM

O=C(CC[C@@H]1C[C@H](N2CCOCC2)CN1c1cc(C(F)(F)F)c(=O)[nH]n1)N1CCN(c2ncc(C(F)(F)F)cn2)CC1 [Compound 35]
IC50 (PARP1): 47 nM | IC50 (PARP7): 4.3 nM

CCO[C@H]1C[C@@H](CCC(=O)N2CCN(c3ncc(C(F)(F)F)cn3)CC2)N(c2cc(C(F)(F)F)c(=O)[nH]n2)C1 [Compound 36]
IC50 (PARP1): 14.4 nM | IC50 (PARP7): 3.8 nM

O=C(CC[C@@H]1C[C@H](N2CCCC2)CN1c1cc(C(F)(F)F)c(=O)[nH]n1)N1CCN(c2ncc(C(F)(F)F)cn2)CC1 [Compound 38]
IC50 (PARP1): 36 nM | IC50 (PARP7): 5 nM

C[C@H]1CC[C@@H](CCC(=O)N2CCN(c3ncc(C(F)(F)F)cn3)CC2)N1c1cc(C(F)(F)F)c(=O)[nH]n1 [Compound 39]
IC50 (PARP1): 60 nM | IC50 (PARP7): 8 nM

N[C@H]1C[C@@H](CCC(=O)N2CCN(c3ncc(C(F)(F)F)cn3)CC2)N(c2cc(C(F)(F)F)c(=O)[nH]n2)C1 [Compound 42]
IC50 (PARP1): 6 nM | IC50 (PARP7): 37 nM

O=C(CC[C@@H]1C[C@H](F)CN1c1cc(C(F)(F)F)c(=O)[nH]n1)N1CCN(c2ncc(C(F)(F)F)cn2)CC1 [Compound 43]
IC50 (PARP1): 4 nM | IC50 (PARP7): 4 nM

CO[C@@H]1C[C@@H](CCC(=O)N2CCN(c3ncc(C(F)(F)F)cn3)CC2)N(c2cc(C(F)(F)F)c(=O)[nH]n2)C1 [Compound 44]
IC50 (PARP1): 18 nM | IC50 (PARP7): 7 nM

O=C(CC[C@@H]1C[C@@H](Oc2cc(F)cc(F)c2)CN1c1cc(C(F)(F)F)c(=O)[nH]n1)N1CCN(c2ncc(C(F)(F)F)cn2)CC1 [Compound 51]
IC50 (NCI-H1373 cells): 69.2 nM

O=C(CC[C@@H]1C[C@@H](c2ccccc2)CN1c1cc(C(F)(F)F)c(=O)[nH]n1)N1CCN(c2ncc(C(F)(F)F)cn2)CC1 [Compound 52]
IC50 (NCI-H1373 cells): 95.9 nM

O=C(CC[C@@H]1C[C@@H](Oc2cncnc2)CN1c1cc(C(F)(F)F)c(=O)[nH]n1)N1CCN(c2ncc(C(F)(F)F)cn2)CC1 [Compound 63]
IC50 (NCI-H1373 cells): 12.4 nM

O=C([C@@H]1C[C@H](Oc2ccccc2)CN1c1cc(C(F)(F)F)c(=O)[nH]n1)N1CCN(c2ncc(C(F)(F)F)cn2)CC1 [Compound 66]
IC50 (PARP1): 427 nM | IC50 (PARP7): 4 nM

O=C([C@@H]1C[C@H](Oc2ccccc2F)CN1c1cc(C(F)(F)F)c(=O)[nH]n1)N1CCN(c2ncc(C(F)(F)F)cn2)CC1 [Compound 67]
IC50 (PARP1): 12000 nM | IC50 (PARP7): 43 nM

CO[C@@H]1C[C@@H](C(=O)N2CCN(c3ncc(C(F)(F)F)cn3)CC2)N(c2cc(C(F)(F)F)c(=O)[nH]n2)C1 [Compound 70]
IC50 (NCI-H1373 cells): 58.2 nM

CCO[C@@H]1C[C@@H](C(=O)N2CCN(c3ncc(C(F)(F)F)cn3)CC2)N(c2cc(C(F)(F)F)c(=O)[nH]n2)C1 [Compound 71]
IC50 (NCI-H1373 cells): 44.6 nM

C[C@@H](COCCC(=O)N1CCN(c2ncc(C(F)(F)F)cn2)CC1)Nc1cn[nH]c(=O)c1C(F)(F)F [RBN-2397, reference compound]
F ([1]; Oral gavage): 3.76% | AUC(0-inf) ([1]; Intravenous injection, 1 mg/kg): 288 ng·h/mL | Cmax ([1]; Intravenous injection, 1 mg/kg): 634 ng/mL | clearance ([1]; Intravenous injection, 1 mg/kg): 58.1 mL/min/kg | half-life ([1]; Intravenous injection, 1 mg/kg): 20.4 min | AUC(0-inf) [1, 5]: 11.5 ng·h/mL | Cmax [1, 5]: 5.55 ng/mL | CLint scaled at 1 μM [2]: 144 mL/min/kg | CLint scaled at 1 μM [3]: 40.8 mL/min/kg | CLint scaled at 1 μM [4]: 88 mL/min/kg
